“Also recorded” adds a separate entry of the source.

As a reminder, the EC50 is the concentration needed to bring the measured effect to its halfway point.

One data set relates to HMEC-1 cells. The experiment in a line: Wound healing (scratch) assay, HMEC-1. Type of data set: cell-based, human. Particulars: for sensitivity at high concentration / proliferation rate / wound healing / proliferation rate relative to baseline / untreated control: HMEC-1, 100 µM; for proliferation rate in wound healing assay: HMEC-1, 1–10 µM; for proliferation rate in wound healing assay / proliferation rate / wound healing / proliferation rate relative to baseline / untreated control: 24 h. How it is done: (§1) The human epidermal keratinocytes HEK001 (CRL-2404, ATCC, Manassas, VA) were maintained in a keratinocyte-serum-free medium supplemented with 5 ng/mL human recombinant EGF. The cells were incubated under 5 % CO2 and a 95 % humidified atmosphere at 37 °C ([Bogen et al., 2017]). HMEC-1 cells (CRL-3243, ATCC) were cultured at 37 °C in a 5 % CO2 humidified atmosphere using MCDB-131 medium supplemented with 10 % fetal bovine serum, 1 % penicillin/streptomycin, 10 mM l-glutamine, 1 μg/mL hydrocortisone, and 10 ng/mL EGF supplement.
(§2) The experiments were performed with biological (96 well plates) and technical (wells) replicates. Four to five biological replicates with four technical replicates were used to determine cytotoxicity. Ten paraben concentrations were assessed, ranging from a low human serum-relevant concentration (1 pM) to a high non-human-relevant concentration (1 mM). A solvent control of 0.6 % DMSO and a positive control of 5 % DMSO were also used. Three representative concentrations were chosen for each cell line for the wound-healing assay. Those concentrations were 1 µM, 10 µM, and 100 µM. Upon dosing, plates were returned to the incubator for a 24-hour exposure period.
(§3) As described by [Grada et al. (2017)] and [Yarrow et al. (2004)], a wound-healing assay was used to evaluate the proliferation rate of a disrupted cell monolayer. Cells were seeded at 200,000 cells/mL in 48-well plates and allowed to stabilize, reaching 90–100 % confluency within 24–72 h. Once confluent, the growth media was removed, and a scratch was created in the cell monolayer using a pipette tip. Manual disruption of the cell monolayer was chosen over the use of inserts or automated scratching devices to design experiments that are cost-effective and accessible to laboratories with limited budgets. This approach provides greater flexibility in experimental design without reliance on specialized equipment, making it a practical solution for resource-constrained settings. Additionally, the manual scratch method may better simulate real-world injury scenarios. To minimize variability, consistent pipette tip sizes were employed, experiments were performed in multiple replicates, and immediate visual inspections were conducted to ensure reproducibility and uniformity across trials. The exposure media was then applied, and cytochalasin D ([…]) was used as a positive control to inhibit wound healing by suppressing cell division via […]. Cells were incubated with exposure media for 24 h while kinetic high contrast brightfield (HCBF) images were captured every 30 min using the Lionheart FX automated microscope (Biotek, Agilent). Gen5 software analyzed the scratch area over time, measuring the reduction in cell-free area as migration occurred. All data were normalized to the solvent control for consistency.

Data set [1] in a line: MTT cytotoxicity assay, HEK001 keratinocytes. Type of data set: cell-based, human. The settings on record: human, HEK001 epidermal keratinocytes, 24 h exposure, MTT, HEK001 keratinocytes; average ± standard deviation; read-out: EC50 from cytotoxicity assay, HEK001. As to the method:
as §1, §2
(§4) Cell viability was assessed using the MTT assay [3-(4,5-dimethylthiazol-2-yl)−2,5-diphenyltetrazolium bromide] ([Solan et al., 2022]). After 24 h of exposure, a 20 % tetrazolium dye solution was added to the cells. The NAD(P)H-dependent oxidoreductase enzymes in viable cells reduced the tetrazolium dye, producing insoluble formazan crystals visible as a purple coloration, indicative of active cellular respiration. Following the incubation period, the media was carefully removed, leaving the formazan crystals behind. To dissolve these crystals, a 1:1 solution of ethanol and DMSO was added to the plate. Absorbance was then measured at 595 nm on a spectrophotometer to quantify the extent of formazan formation (BioTek SynergyTM H1, Winooski, VT).
(§5) A 24-hour exposure period was selected to evaluate the acute toxicity of parabens on HEK001 and HMEC-1 cell lines. […] Assessing the acute effects on these less-characterized cell lines is critical for enabling meaningful comparisons across models. Additionally, acute toxicity studies minimize confounding factors such as nutrient depletion and cell overgrowth, facilitating higher-throughput screening.
In general terms: Tetrazolium assays rely on reduction of a dye to a coloured formazan, in cell work by metabolically active cells.

In data set [2] the test system is HEK001 cells (human epidermal keratinocytes). Briefly: MTT cytotoxicity assay, HEK001 keratinocytes. Type of data set: cell-based. The settings on record: for EC50: 24 h exposure, MTT, HEK001 keratinocytes, average ± standard deviation, read-out: EC50 from cytotoxicity assay, HEK001; for cytotoxic response at high concentration: HEK001, 100 µM, proliferation could not be observed. How it is done:
as §1, §2, §4, §5

The nature of data set [3]: MTT cytotoxicity assay, HMEC-1 endothelial cells. It counts as cell-based. Particulars: human, HMEC-1 dermal microvascular endothelial cells, read-out: EC50 from cytotoxicity assay, HMEC-1. As to the method: as §1, §2, §4, §5
The test system of another data set is HEK001 cells. The experiment in a line: Wound healing (scratch) assay, HEK001. It counts as cell-based, human. The settings on record: for proliferation rate in wound healing assay / proliferation rate / wound healing: 24 h; for proliferation rate / wound healing: HEK001, 100 µM. As to the method:
as §1, §2, §3

In another data set the test system is red blood cells (RBCs). Further details: method as in Ko et al. (2023). The settings on record: ref Ko et al. (2023), cited from earlier work.
The next data set has as its system HDFn cells. The arrangement: method as in Kizhedath et al., 2019. The settings on record: 125 µM, ref Kizhedath et al., 2019; cited from earlier work.
Data set [4] has as its system HepG2 cells. Further details: method as in Kizhedath et al., 2019. The settings on record: 125 µM, ref Kizhedath et al., 2019; cited from earlier work.
Data set [5] relates to HepG2 cells. Further details: method as in Khanal et al., 2012. Particulars: 125 µM, HepG2, compared to HBA, MeP, and PrP; ref Khanal et al., 2012; cited from earlier work.
Another data set deals with M624 melanoma cells. Further details: method as in Couch, 2024; Kinney, 2022. Particulars: 200 µM, ref Couch, 2024, Kinney, 2022; cited from earlier work.
The next data set relates to HaCaT keratinocytes. The arrangement: method as in Couch, 2024; Kinney, 2022. Particulars: 200 µM, ref Couch, 2024, Kinney, 2022; cited from earlier work.
[6] abbreviates: 24 h exposure, MTT, HMEC-1 endothelial cells, average ± standard deviation.
[7] abbreviates: HEK001, 1 µM, versus solvent control.
[8] abbreviates: HEK001, 10 µM, versus solvent control.

For the compound `O=C(OCc1ccccc1)c1ccc(O)cc1` [BeP, benzylparaben], the “sensitivity at high concentration” value with HMEC-1 cells is listed as “too sensitive to conduct proliferation assays”. The entries for the “proliferation rate in wound healing assay” value in the data set with HMEC-1 cells, with HEK001 cells (setting [7]) and with HEK001 cells (setting [8]) were “proliferation rates comparable to those observed in untreated controls”, “lower proliferation rates compared to the solvent control” and “proliferation significantly decreased; also recorded: lower proliferation rates compared to the solvent control”, respectively. Moreover, the EC50 at 24 h in [1] came to 3.34 ± 0.97 µM; in data set [3] (setting [6]) it was 25.6 ± 3.9 µM. The EC50 in [2] came to 3300 ± 1000 nM. Further, in data set [2], the “cytotoxic response at high concentration” value is “acutely lethal responses”.
As for `CCCCOC(=O)c1ccc(O)cc1` [BuP, butylparaben], the “hemolysis of RBCs” value with red blood cells (RBCs) (500 µM) is “increased hemolysis”. Further, the “extracellular phosphatidylserine of RBCs” value in the data set on red blood cells (RBCs) (only BuP among MeP, EtP, PrP, BuP, HBA) is on record as “increase in extracellular phosphatidylserine”. The “sensitivity at high concentration” value in the data set with HMEC-1 cells is “too sensitive to conduct proliferation assays”. Moreover, the “proliferation rate in wound healing assay” value in the data set on HMEC-1 cells is recorded as “proliferation rates comparable to those observed in untreated controls”; in the data set with HEK001 cells (setting [7]), “lower proliferation rates compared to the solvent control”; with HEK001 cells (setting [8]), “proliferation significantly decreased; also recorded: lower proliferation rates compared to the solvent control”. In addition, the cell cycle result with HDFn cells and with HepG2 cells [4] was “cell cycle arrest in the G1 phase” throughout. Also, the results for the EC50 at 24 h in [1] and in data set [3] (setting [6]) were 1.52 ± 0.51 µM and 75.8 ± 13.4 µM, respectively. Also, the EC50 in data set [2] was 1500 ± 510 nM. The “cytotoxic response at high concentration” value in data set [2] is reported as “acutely lethal responses”. For the same compound, in the data set on HepG2 cells [5], the “percentage of apoptotic cells” value is recorded as “higher percentage of apoptotic cells”.
Regarding `COC(=O)c1ccc(O)c(Cl)c1` [CMeP, methyl 3‑chloro-4-hydroxybenzoate], the “proliferation rate / wound healing” value in the data set with HMEC-1 cells is “reduction”. In the data set on HMEC-1 cells, the “proliferation rate relative to baseline / untreated control” value was 20–30%. The “proliferation rate in wound healing assay” value with HMEC-1 cells is given as “proliferation rates comparable to those observed in untreated controls; also recorded: no significant changes in proliferation”; in the data set on HEK001 cells (HEK001, 1–10 µM), “decrease in proliferation”. Further, the values for the EC50 at 24 h in [1] and in data set [3] (setting [6]) were 2.2 ± 0.8 µM and 788 ± 139 µM, respectively. Also, the “cytotoxic response at high concentration” value in data set [2] is “significant cell death”.
As to `COC(=O)c1cc(Br)c(O)c(Br)c1` [DBMeP, methyl 3,5-dibromo-4-hydroxybenzoate], the “proliferation rate relative to baseline / untreated control” value in the data set on HMEC-1 cells is given as 20–30%. In addition, the “proliferation in wound healing assay” value is on record as “reduction in proliferation” in the data set on HMEC-1 cells (HMEC-1, concentration not stated, high variability) and “dose-dependent increase in proliferation” in the data set on HEK001 cells (HEK001, concentrations higher than 1 µM). Besides, the EC50 at 24 h in data set [1] turned out to be 1.49 ± 0.37 µM; in data set [3] (setting [6]), 489 ± 86.4 µM. For the same compound, the EC50 in [2] is 1500 ± 400 nM. For the same compound, the “proliferation rate in wound healing assay” value in the data set with HEK001 cells (setting [7]) is listed as “initially reduced proliferation”. In addition, the “proliferation rate / wound healing” value in the data set on HEK001 cells (versus solvent control) is on record as “dose-dependent increase in proliferation”.
With `COC(=O)c1cc(Cl)c(O)c(Cl)c1` [DCMeP, methyl 3,5-dichloro-4-hydroxybenzoate], in the data set on HMEC-1 cells, the “proliferation rate / wound healing” value is “reduction”, the “proliferation rate relative to baseline / untreated control” value is 20–30% and the “proliferation rate in wound healing assay” value was “no significant changes in proliferation”. Also, the EC50 at 24 h in [1] worked out at 54.5 ± 17.8 µM. Further, the “cytotoxic response at high concentration” value in [2] is “significant cell death”. Also, the EC50 at 24 h in [3] (setting [6]) is > 10000 µM. In addition, the “proliferation rate in wound healing assay” value with HEK001 cells (HEK001, 1–10 µM) is given as “decrease in proliferation”.
`CCOC(=O)c1ccc(O)cc1` [EtP, ethylparaben]: in the data set with HMEC-1 cells, the “proliferation rate relative to baseline / untreated control” value was 20–30% and the “proliferation rate in wound healing assay” value was “proliferation rates comparable to those observed in untreated controls”. In [1], the EC50 at 24 h was determined as 536 ± 178 µM. Also, the EC50 at 24 h in [3] (setting [6]) turned out to be 171 ± 77.9 µM. Further, the “proliferation rate / wound healing” value in the data set on HEK001 cells (versus solvent control) was “substantial decrease in proliferation rates”.
In the case of `O=C(O)c1ccc(O)cc1` [HBA, 4-hydroxybenzoic acid], the figures for the EC50 at 24 h in [1] and in data set [3] (setting [6]) were 696 ± 245 µM and > 10000 µM, respectively.
Turning to `COC(=O)c1ccc(O)cc1` [MeP, Methyl 4-hydroxybenzoate], in the data set on HMEC-1 cells, the “proliferation rate relative to baseline / untreated control” value is 160% and the “proliferation rate in wound healing assay” value was “proliferation rates comparable to those observed in untreated controls”. The EC50 at 24 h in data set [1] came out at 1310 ± 464 µM. Besides, the EC50 at 24 h in [3] turned out to be 1090 ± 618 µM. Further, in the data set with HEK001 cells (versus solvent control), the “proliferation rate / wound healing” value is listed as “substantial decrease in proliferation rates”.
Take `CCCOC(=O)c1ccc(O)cc1` [PrP, propylparaben]: in the data set with HMEC-1 cells, the “sensitivity at high concentration” value is listed as “too sensitive to conduct proliferation assays” and the “proliferation rate in wound healing assay” value is “proliferation rates comparable to those observed in untreated controls”. Moreover, the EC50 at 24 h in data set [1] is 17 ± 9.9 µM. In data set [2], the “cytotoxic response at high concentration” value is “acutely lethal responses”. In data set [3] (setting [6]), the concentration for a half-maximal effect (EC50) at 24 h was found to be 102 ± 18 µM.
As for `CCCCCCCOC(=O)c1ccc(O)cc1` [heptylparaben], the “cell viability, cytochrome C levels, caspase 3” value is “significantly reduced cell viability, increased cytochrome C levels, and activated caspase 3” in the data set with M624 melanoma cells; “significantly reduced cell viability, increased cytochrome C levels, and activated caspase 3” in the data set with HaCaT keratinocytes.

The values above are taken from PMC13289148, “Assessment of the toxic effects of parabens, commonly used preservatives in cosmetics, and their halogenated by-products on human skin and endothelial cells” (NAM journal, 2025).
